# From US8304448B2, “Method for the treatment of metabolic disorder containing benzazole derivatives as an active ingredient” (Korea Research Institute of Bioscience and Biotechnology, priority 2006, dated 2012)
# Legend:
# DGAT [1] = assay: Assay for inhibitory activity against DGAT ([14C]triacylglycerol formation, rat microsomal protein); assay type: biochemical; conditions: rat microsomal protein as enzyme source
# Source text: The derivatives of Chemical Formula 1 in accordance with the present invention are found to inhibit the enzymatic activity of DGAT at a dose-dependent manner (refer to Table 2 and FIG. 1) as measured in a test in which [^14C]triacylglycerol was quantitatively analyzed after enzymatic reaction between 1,2-diacylglycerol and [^14C]palmitoyl-CoA, with microsomal proteins from rats serving as an enzyme source (refer to Example 1).
# After enzymatic reaction between two substrates 1,2-diacylglycerol (Sigma, D0138) and [^14C]palmitoyl-CoA (Amersham, CFA583) with the microsomal protein of rat serving as an enzyme source in accordance with Coleman et al, Methods Enzymol., 98-103, 1992, the resulting product [^14C] triacylglycerol was measured for radioactivity. In detail, to a reaction buffer (175 mM Tris-HCl, pH 8.0, 20 μl bovine serum albumin (10 mg/ml), 100 mM MgCl2, 30 μM [^14C] palmitoyl-CoA (0.02 μCi, Amersham) and 200 μM 1,2-dioleoyl glycerol) was added 10 μl of a solution of the samples in dimethylsulfoxide (DMSO) and then 100˜200 μl of an isolated microsomal protein, followed by reaction at 25° C. for 10 min. The reaction was terminated with 1.5 ml of a mixture of 80:20:2 2-propanol:heptane:water (v:v:v). Thereafter, the [^14C] triacylglycerol thus formed was separated. In this regard, 1 ml of heptane and 0.5 ml of distilled water were added to the reaction mixture, which was then shaken. 1 ml of the supernatant thus formed was mixed with 2 ml of an alkaline ethanol solution (ethanol:0.5 N sodium hydroxide:water=50:10:40, v:v:v), followed by shaking. After being taken, 0.65 ml of the supernatant thus formed was measured for radioactivity using an LSC (liquid scintillation counter). The inhibitory activity against DGAT was calculated according to the following Mathematical Formula 1. The inhibitory effects of the benzazole derivatives on DGAT are summarized in Table 2, below while % DGAT inhibition is plotted against doses of compound 22 and 31 in FIG. 1.
# T: Cpm of a test group in which a sample was added to an enzymatic buffer,
# C: Cpm of a control in which no samples were added to an enzymatic buffer,
# B: Cpm of a control in which a sample was added in the absence of any enzyme source.
# DGAT [2] = assay: Assay for inhibitory effect on DGAT in cell (intracellular triglyceride production from [14C]acetate in HepG2 cells); assay type: cell-based, human; conditions: for Production Yield of Triglyceride (%): final level 10 μM, DMSO control given as 100
# Experimental: The effect of the benzazole derivatives of Chemical Formula 1 in accordance with the present invention on DGAT was examined with HepG2 cells, hepatic cells derived from the human liver, as follows.
# HepG2 cells, purchased from ATCC, were cultured in Eagle's minimum essential medium (MEM), 2 mM L-glutamine, with Earle's balanced salt solution (BSS) adjusted to contain, 1.5 g/L sodium bicarbonate, 0.1 mM non-essential amino acids and 1 mM sodium pyruvate, supplemented with 10% fetal bovine serum (FBS) and 1% antibiotics (100 U/ml penicillin and 100 µg/ml streptomycin) at 37° C. in a 5% CO2 incubator.
# Intracellular DGAT activity was represented by the amount of triglycerides produced in the cultured HepG2 cells while the compounds (4, 8, 10, 22, 24, 25, 26, 39 and 31) of Chemical Formula 1 were assayed for inhibitory activity against DGAT by measuring the change in intracellular triglyceride production after the addition thereof.
# Cells were plated at a density of 1×10^6 cell/ml per well into 24-well plates and incubated for 24 hours. Then, the medium was exchanged with FBS-free MEM and pre-treated with samples for 1 hour. Thereafter, 0.2 mCi of [^14C]acetate (Amersham) was added as a substrate to the cells, followed by incubation for 1 hour. The production of triglyceride was catalyzed by DGAT so that DGAT activity was determined by the amount of the triglyceride product, which could be measured by radioactivity. For use, the samples were dissolved in dimethyl sulfoxide (DMSO). In a control, triglycerides were synthesized using DMSO without any sample, with the production yield thereof given as 100.
# The amount of the glyceride products synthesized was determined as follows. After completion of synthesis, the cells were suspended in PBS (phosphate-buffer-saline) to remove the substrate [^14C]acetate, whether unabsorbed into the cells or remaining unreacted, and total lipids, including triglycerides, were extracted twice for 30 min with 0.5 ml of an extraction solvent mixture (hexane:isopropanol=3:2, v:v). 1 ml of the extract was concentrated with nitrogen gas.
# The total lipid residue thus formed was dissolved in an organic solvent mixture (chloroform:methanol=2:1) and loaded dropwise onto a thin layer chromatography plate (TLC; silica gel 60F254, 0.5 mm, Merck) using a mixture of 80:20:1 hexane:diethylether:acetic acid (v:v:v) as a developing solvent. After the separation of triglycerides (Rf value: 0.4) on TLC, the plate was brought into contact with an autoradiographic film for three hours, followed by image analysis (BAS-1500, Fuji Photo Film Co. Ltd.) to determine the [^14C] radioactivity of the triglycerides. The cells left after the extraction were suspended in 0.3 ml of a 0.1 N sodium hydroxide solution to measure the cellular protein concentration thereof.
# The empirical values were obtained by dividing triglyceride radioactivity by protein level, with correction for experimental errors between test groups.
# SPF ICR mice = assay: Acute toxicity, single oral dose of 2,000 mg/kg, mice; assay type: in vivo
# Experimental: In addition, the compounds of the present invention were orally administered once at a dose of as high as 2,000 mg/kg into mice. In this regard, 7-week-old male SPF ICR mice (Dae Han Biolink Co. Ltd.) were acclimated to a new environment for one week and they, thus 8 weeks old, were divided into two groups of three. The test group was orally administered once with a dose of 2 g/kg of Compound 10 in a 0.5% CMC solution, while the control was administered with a 0.5% CMC (carboxymethyl cellulose) solution alone. They were monitored for death, clinical signs, change in body weight and the like for a couple of weeks. Autopsies were performed to examine the abnormality of organs.
# Therefore, the compounds of the present invention exert no oral acute toxicity on mice even when administered once at a dose of up to 2,000 mg/kg.
# [3] = tested on: ICR mice fed a high-fat diet; assay: In vivo assay for anti-obesity activity in mice fed a high-fat diet; parameters: species or system mouse; conditions: high-fat diet
# Experimental: Also, the derivatives of Chemical Formula 1 were tested for resistance to obesity by iterative oral administration at a dose of 10 mg/kg into ICR male mice (refer to Example 3). […] When they were administered, the levels of total triglycerides, total cholesterols, and low density lipoprotein (LDL)-cholesterol in the blood recovered to almost normal levels, with a significant increase observed in the level of high density lipoprotein (HDL)-cholesterol in the blood (refer to Tables 6 and 7 and FIGS. 3 and 4).
# In order to verify the anti-obesity activity of the benzaldehyde derivatives of Chemical Formula 1 in accordance with the present invention, Compounds 22 and 31 were administered repetitively into rodents as follows.
# The experimental animals were 6 week old ICR mice which were purchased from Japan SLC, Inc. via Central Lab. Animal Inc. Korea. They were acclimated to a new environment for one week before use, and fed with a foodstuff commercially available from Deyts, U.S.A. They were bred in an animal lab set at a temperature of 23±3° C. and RH 50±10% under light of 150˜300 Lux for a period of 12 hours (6 a.m.˜6 p.m.) with ventilation 10-20 times/hour. All of the 12 mice used were male, and were organized into two groups of 6. The test group was orally administered once a day at 4 p.m. with 10 mg/kg of the compound (Chemical Formula 1) in the form of a solution in biological saline for 35 days while the control was administered with biological saline only. Xenical, a commercially available lipase inhibitor, was administered orally at a dose of 10 mg/kg once a day as a positive control drug.
# The animals were measured for body weight every week and sacrificed on Day 35, after which blood from the heart was sampled. Abdominal fat, epididymal fat, retroperitoneal fat and the liver were excised and weighed. Blood samples were assayed for total triglyceride, total cholesterol, HDL-cholesterol and LDL-cholesterol using respective test kits, all commercially available from Asan Pharmaceutical Co. Ltd., Korea.
# For evidence of anti-obesity activity, compounds 22 and 31 were orally administered at regular intervals at a dose of 10 mg/kg into ICR male mice for a predetermined period of time with the concurrent provision of conditional diets thereto. Anatomized abdomens of the animals are given in the photographs of FIG. 2.
# [4] = Day 35, 10 mg/kg oral, Mean ± SD
# [5] = blood, Day 35, 10 mg/kg oral, Mean ± SD
compound,measurement,setting,value
"O=C(NCCN1CCCCC1)c1ccc2oc(COc3ccc(C45CC6CC(CC(C6)C4)C5)cc3)nc2c1 [Cpd. 24, 2-(4-adamantan-1-yl-phenoxymethyl)-benzoxazole-5-carboxylic acid (2-piperidin-1-yl-ethyl)-amide]",DGAT (% inhibition in 25 μM),DGAT [1],52.84%
same,Production Yield of Triglyceride (%),DGAT [2],78.5 ± 6.2%
"CN(C)C(=O)c1ccc2nc(COc3ccc(C45CC6CC(CC(C6)C4)C5)cc3)[nH]c2c1 [Cpd. 30, 2-(4-adamantan-1-yl-phenoxymethyl)-3H-benzoimidazole-5-carboxylic acid dimethylamide]",DGAT (% inhibition in 5 μM),DGAT [1],8.0%
same,DGAT (% inhibition in 25 μM),DGAT [1],41.8%
same,Production Yield of Triglyceride (%),DGAT [2],87.2 ± 7.4%
"O=C(NCc1ccco1)c1ccc2oc(COc3ccc(Cl)cc3Cl)nc2c1 [Cpd. 26, 2-(2,4-dichloro-phenoxymethyl)-benzoxazole-5-carboxylic acid (furan-2-ylmethyl)-amide]",DGAT (% inhibition in 25 μM),DGAT [1],19.75%
same,Production Yield of Triglyceride (%),DGAT [2],91.5 ± 5.2%
"COC(=O)c1ccc2[nH]c(COc3ccc(C45CC6CC(CC(C6)C4)C5)cc3)nc2c1 [Cpd. 4, 2-(4-adamantan-1-yl-phenoxymethyl)-1H-benzoimidazole-5-carboxylic acid methyl ester]",DGAT (% inhibition in 25 μM),DGAT [1],60.43%
same,Production Yield of Triglyceride (%),DGAT [2],72.2 ± 7.5%
"COC(=O)c1ccc2[nH]c(COc3ccc(C(C)(C)C)cc3C(C)(C)C)nc2c1 [Cpd. 8, 2-(2,4-tert-butyl-phenoxymethyl)-1H-benzoimidazole-5-carboxylic acid methyl ester]",DGAT (% inhibition in 25 μM),DGAT [1],37.36%
same,Production Yield of Triglyceride (%),DGAT [2],88.5 ± 5.8%
"NS(=O)(=O)c1ccc2oc(COc3ccc(Cl)cc3Cl)nc2c1 [Cpd. 10, 2-(2,4-dichloro-phenoxymethyl)-benzoxazole-5-sulfonic acid amide]",DGAT (% inhibition in 25 μM),DGAT [1],17.43%
same,Production Yield of Triglyceride (%),DGAT [2],98.7 ± 6.3%
same,Mortality,"SPF ICR mice; single oral 2 g/kg in 0.5% CMC, No. of Dead/No of Tested",0/3
same,Body Weight (g) Day 0,"SPF ICR mice; single oral 2 g/kg, Day 0, Mean ± SD",35 ± 0.5 g
same,Body Weight (g) Day 1,"SPF ICR mice; single oral 2 g/kg, Day 1, Mean ± SD",37 ± 0.5 g
same,Body Weight (g) Day 3,"SPF ICR mice; single oral 2 g/kg, Day 3, Mean ± SD",37 ± 0.6 g
same,Body Weight (g) Day 7,"SPF ICR mice; single oral 2 g/kg, Day 7, Mean ± SD",39 ± 1.6 g
same,Body Weight (g) Day 14,"SPF ICR mice; single oral 2 g/kg, Day 14, Mean ± SD",42 ± 0.8 g
"O=C(NCCCN1CCOCC1)c1ccc2oc(COc3ccc(C45CC6CC(CC(C6)C4)C5)cc3)nc2c1 [Cpd. 25, 2-(4-adamantan-1-yl-phenoxymethyl)-benzoxazole-5-carboxylic acid (3-morpholin-4-yl-propyl)-amide]",DGAT (% inhibition in 25 μM),DGAT [1],54.08%
same,Production Yield of Triglyceride (%),DGAT [2],80.2 ± 7.8%
"O=C(NCc1ccco1)c1ccc2[nH]c(COc3ccc(C45CC6CC(CC(C6)C4)C5)cc3)nc2c1 [Cpd. 31, 2-(4-adamantan-1-yl-phenoxymethyl)-1H-benzoimidazole-5-carboxylic acid (furan-2-ylmethyl)-amide]",DGAT (% inhibition in 5 μM),DGAT [1],62.5%
same,DGAT (% inhibition in 25 μM),DGAT [1],85.4%
same,inhibition of the biosynthesis of triglycerides,DGAT [2]; 10 μM,42.2%
same,Production Yield of Triglyceride (%),DGAT [2],57.8 ± 5.3%
same,(Tissue Weight/Body Weight) × 100 Abdominal Fat + Epididymal Fat,[3]; [4],3.16 ± 0.84
same,(Tissue Weight/Body Weight) × 100 Liver,[3]; [4],4.48 ± 0.33
same,(Tissue Weight/Body Weight) × 100 Retroperitoneal Fat,[3]; [4],0.94 ± 0.24
same,(Tissue Weight/Body Weight) × 100 Total Fat,[3]; [4],4.1 ± 1.03
same,HDL-Cholesterol,[3]; [5],21.22 ± 2.19 mg/dL
same,LDL-Cholesterol,[3]; [5],43.62 ± 10.06 mg/dL
same,Total Cholesterol,[3]; [5],73.19 ± 10.97 mg/dL
same,Total Triglyceride,[3]; [5],41.79 ± 9.26 mg/dL
same,inhibition of body weight gain,[3]; 10 mg/kg oral once a day for 35 days,73%
same,Body Weight (g) (Mean ± SD) Week 0,"[3]; 10 mg/kg oral once a day, Week 0",25.08 ± 0.99 g
same,Body Weight (g) (Mean ± SD) Week 1,"[3]; 10 mg/kg oral once a day, Week 1",35.1 ± 1.99 g
same,Body Weight (g) (Mean ± SD) Week 2,"[3]; 10 mg/kg oral once a day, Week 2",38.93 ± 2.33 g
same,Body Weight (g) (Mean ± SD) Week 3,"[3]; 10 mg/kg oral once a day, Week 3",40.75 ± 1.75 g
same,Body Weight (g) (Mean ± SD) Week 4,"[3]; 10 mg/kg oral once a day, Week 4",42.31 ± 1.57 g
same,Body Weight (g) (Mean ± SD) Week 5,"[3]; 10 mg/kg oral once a day, Week 5",43.22 ± 1.41 g
"COC(=O)c1ccc2oc(COc3ccc(C45CC6CC(CC(C6)C4)C5)cc3)nc2c1 [Cpd. 2, 2-(4-adamantan-1-yl-phenoxymethyl)-benzoxazole-5-carboxylic acid methyl ester]",DGAT (% inhibition in 25 μM),DGAT [1],−25.72%
